Reference: the NIST ThermoML archive (doi:10.1016/j.fluid.2009.08.011)

Test: cn = amount concentration of the nth substance listed, in mol/dm3
Conditions: 101 kPa, Liquid, Alternating current cell with electrodes

CCCCCn1cc[n+](C)c1.[Br-] [1-pentyl-3-methylimidazolium bromide] + O
Conditions	molar conductivity [S·m2/mol]
298.15 K, c1 = 0.000384	0.0111
298.15 K, c1 = 0.0008844	0.0111
298.15 K, c1 = 0.001373	0.011
298.15 K, c1 = 0.001897	0.011
298.15 K, c1 = 0.002397	0.0109
298.15 K, c1 = 0.003002	0.0108
298.15 K, c1 = 0.004323	0.0107
298.15 K, c1 = 0.005743	0.0106
298.15 K, c1 = 0.00718	0.0105
298.15 K, c1 = 0.008646	0.0104
298.15 K, c1 = 0.01011	0.0102
298.15 K, c1 = 0.01145	0.0102
298.15 K, c1 = 0.01293	0.01
308.15 K, c1 = 0.0006353	0.0115
308.15 K, c1 = 0.001306	0.0114
308.15 K, c1 = 0.002028	0.0113
308.15 K, c1 = 0.002681	0.0113
308.15 K, c1 = 0.003351	0.0112
308.15 K, c1 = 0.003975	0.0111
308.15 K, c1 = 0.004605	0.011
308.15 K, c1 = 0.00598	0.0109
308.15 K, c1 = 0.007554	0.0107
308.15 K, c1 = 0.008895	0.0106
308.15 K, c1 = 0.01033	0.0105
308.15 K, c1 = 0.01176	0.0103
308.15 K, c1 = 0.01422	0.0101
318.15 K, c1 = 0.0004898	0.0136
318.15 K, c1 = 0.001056	0.0135
318.15 K, c1 = 0.002177	0.0134
318.15 K, c1 = 0.003249	0.0131
318.15 K, c1 = 0.004768	0.0128
318.15 K, c1 = 0.006798	0.0124
318.15 K, c1 = 0.009143	0.012
318.15 K, c1 = 0.01259	0.0115
318.15 K, c1 = 0.01687	0.0109
318.15 K, c1 = 0.02234	0.0103
328.15 K, c1 = 0.0004268	0.0146
328.15 K, c1 = 0.0008311	0.0141
328.15 K, c1 = 0.001314	0.0139
328.15 K, c1 = 0.002252	0.0137
328.15 K, c1 = 0.003274	0.0135
328.15 K, c1 = 0.004773	0.0133
328.15 K, c1 = 0.006329	0.0131
328.15 K, c1 = 0.008289	0.0128
328.15 K, c1 = 0.01078	0.0125
328.15 K, c1 = 0.01389	0.0122
328.15 K, c1 = 0.01791	0.0118
328.15 K, c1 = 0.02233	0.0115
328.15 K, c1 = 0.02611	0.0111

CCCCn1cc[n+](C)c1.[Br-] [1-butyl-3-methylimidazolium bromide] + O
Conditions	molar conductivity [S·m2/mol]
298.15 K, c1 = 0.0004937	0.0131
298.15 K, c1 = 0.0008655	0.0131
298.15 K, c1 = 0.001621	0.013
298.15 K, c1 = 0.002706	0.0129
298.15 K, c1 = 0.003761	0.0128
298.15 K, c1 = 0.005815	0.0126
298.15 K, c1 = 0.008089	0.0125
298.15 K, c1 = 0.01047	0.0123
298.15 K, c1 = 0.01259	0.0122
308.15 K, c1 = 0.0004882	0.0137
308.15 K, c1 = 0.00104	0.0135
308.15 K, c1 = 0.001567	0.0135
308.15 K, c1 = 0.001953	0.0134
308.15 K, c1 = 0.002955	0.0132
308.15 K, c1 = 0.00388	0.0131
308.15 K, c1 = 0.004882	0.0129
308.15 K, c1 = 0.006552	0.0128
308.15 K, c1 = 0.008273	0.0127
308.15 K, c1 = 0.009904	0.0125
308.15 K, c1 = 0.01206	0.0124
318.15 K, c1 = 0.000457	0.015
318.15 K, c1 = 0.001096	0.0148
318.15 K, c1 = 0.001486	0.0147
318.15 K, c1 = 0.002393	0.0143
318.15 K, c1 = 0.003324	0.014
318.15 K, c1 = 0.004652	0.0138
318.15 K, c1 = 0.006235	0.0134
318.15 K, c1 = 0.008073	0.0131
318.15 K, c1 = 0.009991	0.0129
318.15 K, c1 = 0.012	0.0126
318.15 K, c1 = 0.0138	0.0124
328.15 K, c1 = 0.00043	0.0158
328.15 K, c1 = 0.000847	0.0157
328.15 K, c1 = 0.001805	0.0154
328.15 K, c1 = 0.002719	0.0152
328.15 K, c1 = 0.003628	0.015
328.15 K, c1 = 0.005125	0.0147
328.15 K, c1 = 0.006801	0.0144
328.15 K, c1 = 0.008998	0.014
328.15 K, c1 = 0.01111	0.0136
328.15 K, c1 = 0.01358	0.0132
